Test results from patent US12115208B2, “Small-molecule adjuvants for antibiotics to address antibiotic resistance” (HIGH POINT UNIVERSITY, priority 2017, dated 2024).
Where two headings read alike, the source gives them in different places. Blank lines part the entries; values can stand above or below the compound they belong to.

Legend:
[1] = tested on: S. aureus 43300 (MRSA); assay: Antibiotic repotentiation (antibiotic MIC with/without compound); type: cell-based, Staphylococcus aureus
Procedure: (§1) The overnight culture was diluted into fresh CAMHB to a concentration of 5×10^5 CFU/ml. […] On the same plate, a standard microdilution MIC with the tested antibiotics and no added compound was also performed to compare the antibiotic MIC in the presence and absence of compound. […] Fold reductions were calculated by dividing the MIC of the antibiotic without compound by the MIC of the antibiotic in the presence of compound.
(§2) The compounds were then analyzed for antibiotic repotentiation activity. […] The tested strains included USA300, which is a common and particularly virulent strain of community-acquired MRSA.

[2] = tested on: S. aureus USA300 (MRSA); assay: as above; type: cell-based, Staphylococcus aureus; conditions: MRSA USA300
Procedure: as §1, §2

[3] = tested on: S. aureus NR-49120 (VRSA); assay: as above; type: cell-based, Staphylococcus aureus; conditions: VRSA NR-49120; for Fold Reduction: antibiotic MIC
Procedure: as §1

[4] = tested on: S. aureus USA100 (MRSA); assay: as above; type: cell-based, Staphylococcus aureus; conditions: MRSA USA100; for Fold Reduction: antibiotic MIC
Procedure: as §1

[5] = tested on: S. aureus ATCC 43300 (MRSA); assay: Minimum inhibitory concentration, broth microdilution; type: cell-based, Staphylococcus aureus; conditions: compound alone; S. aureus ATCC 43300 (MRSA); CAMHB, 18 h; read-out: MIC
Procedure: as §2

[6] = tested on: S. epidermidis ATCC 49461 biofilm; assay: Biofilm inhibition, crystal violet assay; type: cell-based, Staphylococcus epidermidis; conditions: read-out: Inhibition of biofilm formation IC50
Procedure: A standard static crystal violet assay was used to quantify biofilm inhibition.^45 Cultures of S. aureus or S. epidermidis were grown overnight in TSBG (tryptic soy broth with 5% glucose) at 37° C. with shaking. These cultures were used to inoculate fresh TSBG to a calculated optical density of 0.01 at 600 nm (OD600). […] Untreated aliquots were used as a positive control and water served as a negative control. 100 μl of these suspensions were added to the wells of a 96-well polyvinylchloride microtiter plate. […] After incubation, media was discarded and the plates were washed with water to remove non-adherent cells. Adherent biofilms were stained with 110 μl of crystal violet (0.1% in water) and incubated at room temperature for thirty minutes. The crystal violet staining solution was discarded and plates were washed with water to remove excess stain. The resulting stained biofilms were solubilized with 200 μL of 95% ethanol for 10 minutes. 125 μl of the ethanol solutions were transferred to a clear polystyrene microtiter plate for evaluation. Absorbance at 540 nm was recorded using a BioTek Synergy H1 microplate reader. The absorbance of the negative control lanes was subtracted from the experimental values to account for background staining. Percent inhibition was calculated by comparison of the absorbance values of control versus treated wells under identical conditions.

[7] = +50 μM compound, S. aureus 43300 (MRSA)
[8] = oxacillin MIC, +50 μM compound, S. aureus 43300 (MRSA)
[9] = +100 μM compound, S. aureus 43300 (MRSA)
[10] = oxacillin MIC, +100 μM compound, S. aureus 43300 (MRSA)
[11] = +75 μM compound, S. aureus 43300 (MRSA)
[12] = oxacillin MIC, +75 μM compound, S. aureus 43300 (MRSA)
[13] = +31.25 μM compound, S. aureus 43300 (MRSA)
[14] = oxacillin MIC, +31.25 μM compound, S. aureus 43300 (MRSA)
[15] = Staphylococcus epidermidis, ATCC49461, 30 h

MIC of antibiotic ([1]; +Amoxapine (150 μM), S. aureus 43300 (MRSA)): 4 µg/mL | MIC of antibiotic ([1]; +Loratadine 25 μM, MRSA 43300): 16/8 | MIC of antibiotic ([1]; +Loratadine 50 μM, MRSA 43300): 1/2 | MIC of antibiotic ([1]; antibiotic alone, no compound, S. aureus 43300 (MRSA)): 32 µg/mL | MIC of antibiotic ([1]; antibiotic alone, S. aureus ATCC 43300 (MRSA)): 16 µg/mL | MIC of antibiotic ([2]; +Loratadine 25 μM): 8 µg/mL | MIC of antibiotic ([2]; +Loratadine 50 μM): 0.5 µg/mL | MIC of antibiotic ([2]; antibiotic alone): 8 µg/mL | MIC of antibiotic ([3]; +Loratadine 25 μM): 16 µg/mL | MIC of antibiotic ([3]; +Loratadine 50 μM): 4 µg/mL | MIC of antibiotic ([3]; antibiotic alone): 16 µg/mL | MIC of antibiotic ([4]; +Loratadine 25 μM): 16 µg/mL | MIC of antibiotic ([4]; +Loratadine 50 μM): 1/2 | MIC of antibiotic ([4]; antibiotic alone): 32 µg/mL
Compound: CC1(C)S[C@@H]2[C@H](NC(=O)[C@H](N)c3ccccc3)C(=O)N2[C@H]1C(=O)O [Ampicillin]
Fold Reduction ([1]; antibiotic MIC, +Amoxapine (150 μM), S. aureus 43300 (MRSA)): 8 | Fold Reduction ([1]; antibiotic MIC, +Loratadine 25 μM, MRSA 43300): 1/2 | Fold Reduction ([1]; antibiotic MIC, +Loratadine 50 μM, MRSA 43300): 4 | Fold Reduction ([3]; +Loratadine 25 μM): 1 | Fold Reduction ([3]; +Loratadine 50 μM): 4 | Fold Reduction ([4]; +Loratadine 25 μM): 2 | Fold Reduction ([4]; +Loratadine 50 μM): 32/16

Oxacillin MIC [1, 7]: 16 µg/mL
Compound: Cc1ccnc2c1NC(=O)c1cccnc1N2C1CC1 [Compound I-1]
Fold Reduction [1, 8]: 1

Oxacillin MIC [1, 7]: 16 µg/mL
Compound: NC(=O)N1c2ccccc2C=Cc2ccccc21 [Compound I-2]
Fold Reduction [1, 8]: 1

Oxacillin MIC [1, 7]: 16 µg/mL
Compound: O=c1c2ccccc2ccc2ccccc12 [Compound I-3]
Fold Reduction [1, 8]: 1

Oxacillin MIC [1, 7]: 16 µg/mL
Compound: C1=Cc2ccccc2Nc2ccccc21 [Compound I-4]
Fold Reduction [1, 8]: 1

Oxacillin MIC [1, 7]: 16 µg/mL
Compound: O=C1CCCNc2cc(Cl)ccc21 [Compound I-6]
Fold Reduction [1, 8]: 1

MIC [5]: >2000 µM | Oxacillin MIC [1, 9]: 32 µg/mL | IC50 ([6]; 30 h): > 100 µM
Compound: c1ccc(-c2ccccn2)nc1 [Compound V-1]
Fold Reduction [1, 10]: 1

MIC [5]: 1000 µM | Oxacillin MIC [1, 9]: 32 µg/mL | IC50 ([6]; 30 h): 84.6 µM
Compound: c1cnc2ccc3ncccc3c2c1 [Compound V-2]
Fold Reduction [1, 10]: 1

MIC [5]: >250 µM | Oxacillin MIC [1, 11]: 8 µg/mL | IC50 ([6]; 30 h): > 100 µM
Compound: Brc1cc2ccccc2c2ccccc12 [Compound V-3]
Fold Reduction [1, 12]: 4

MIC [5]: 125 µM | Oxacillin MIC [1, 13]: 8 µg/mL | IC50 ([6]; 30 h): 51.8 µM
Compound: c1cnc2c(c1)ccc1cccnc12 [Compound V-4]
Fold Reduction [1, 14]: 4

MIC [5]: 1000 µM | Oxacillin MIC [1, 9]: 32 µg/mL | IC50 ([6]; 30 h): 38.5 µM
Compound: Clc1ccc2ccc3cccnc3c2n1 [Compound V-5]
Fold Reduction [1, 10]: 1

MIC [5]: 31.25 µM | Oxacillin MIC ([1]; +7.8125 μM compound, S. aureus 43300 (MRSA)): 16 µg/mL | IC50 ([6]; 30 h): > 100 µM
Compound: O=[N+]([O-])c1cc2cccnc2c2ncccc12 [Compound V-7]
Fold Reduction ([1]; oxacillin MIC, +7.8125 μM compound, S. aureus 43300 (MRSA)): 2

MIC [5]: 125 µM | Oxacillin MIC [1, 13]: 2 µg/mL | IC50 ([6]; 30 h): 78.9 µM
Compound: Cc1cc2cccnc2c2ncccc12 [Compound V-8]
Fold Reduction [1, 14]: 16

MIC [5]: 125 µM | Oxacillin MIC [1, 13]: 32 µg/mL | IC50 ([6]; 30 h): < 5 µM
Compound: Cc1ccc2ccc3ccc(C)nc3c2n1 [Compound V-9]
Fold Reduction [1, 14]: 1

MIC [5]: >500 µM | Oxacillin MIC [1, 11]: 32 µg/mL | IC50 ([6]; 30 h): 27.3 µM
Compound: Clc1ccnc2c1ccc1c(Cl)ccnc12 [Compound V-10]
Fold Reduction [1, 12]: 1

MIC [5]: 250 µM | Oxacillin MIC ([1]; +62.5 μM compound, S. aureus 43300 (MRSA)): 32 µg/mL | IC50 ([6]; 30 h): > 100 µM
Compound: Oc1ccnc2c1ccc1c(O)ccnc12 [Compound V-11]
Fold Reduction ([1]; oxacillin MIC, +62.5 μM compound, S. aureus 43300 (MRSA)): 1

MIC [5]: 31.25 µM | Oxacillin MIC ([1]; +7.8 μM compound, S. aureus 43300 (MRSA)): 4 µg/mL | IC50 ([6]; 30 h): > 100 µM
Compound: COc1ccnc2c1ccc1c(OC)ccnc12 [Compound V-12]
Fold Reduction ([1]; oxacillin MIC, +7.8 μM compound, S. aureus 43300 (MRSA)): 8

MIC [5]: 6.25 µM | Oxacillin MIC ([1]; +[…] compound, S. aureus 43300 (MRSA)): 16 µg/mL | IC50 ([6]; 30 h): > 100 µM
Compound: c1ccc(-c2ccnc3c2ccc2c(-c4ccccc4)ccnc23)cc1 [Compound V-13]

MIC [5]: 3.125 µM | Oxacillin MIC ([1]; +0.78 μM compound, S. aureus 43300 (MRSA)): 32 µg/mL | IC50 ([6]; 30 h): > 100 µM
Compound: Cc1cnc2c(ccc3c(C)c(C)cnc32)c1C [Compound V-14]
Fold Reduction ([1]; oxacillin MIC, +0.78 μM compound, S. aureus 43300 (MRSA)): 1

Oxacillin MIC [1, 7]: 32 µg/mL
Compound: CCN1c2ccccc2CCc2ccc(Cl)cc21 [II-2]
Fold Reduction [1, 8]: 1

Oxacillin MIC [1, 7]: 16 µg/mL
Compound: CCCCCN1c2ccccc2CCc2ccc(Cl)cc21 [II-3]
Fold Reduction [1, 8]: 2

Oxacillin MIC [1, 7]: 32 µg/mL
Compound: CCCCCCCCN1c2ccccc2CCc2ccc(Cl)cc21 [II-4]
Fold Reduction [1, 8]: 1

Oxacillin MIC [1, 7]: 8 µg/mL
Compound: C=CCN1c2ccccc2CCc2ccc(Cl)cc21 [II-5]
Fold Reduction [1, 8]: 4

Oxacillin MIC [1, 7]: 32 µg/mL
Compound: Clc1ccc2c(c1)N(Cc1ccccc1)c1ccccc1CC2 [II-6]
Fold Reduction [1, 8]: 1

Compound: NC1=Nc2ccccc2Oc2ccc(Cl)cc21 [II-7]
Oxacillin MIC [1, 7]: 32 µg/mL | Fold Reduction [1, 8]: 1

Compound: CCCCCNC1=Nc2ccccc2Oc2ccc(Cl)cc21 [II-8]
Oxacillin MIC [1, 7]: 32 µg/mL | Fold Reduction [1, 8]: 1

Compound: CCCCCCCCNC1=Nc2ccccc2Oc2ccc(Cl)cc21 [II-9]
Oxacillin MIC [1, 7]: 32 µg/mL | Fold Reduction [1, 8]: 1

Compound: Clc1ccc2c(c1)C(NC1CCCCC1)=Nc1ccccc1O2 [II-10]
Oxacillin MIC [1, 7]: 32 µg/mL | Fold Reduction [1, 8]: 1

IC50 [6, 15]: > 80 µM
Compound: CCCCN1CCC(=C2c3ccc(Cl)cc3CCc3cccnc32)CC1 [III-1, 11-(1-butylpiperidin-4-ylidene)-8-chloro-6,11-dihydro-5H-benzo[5,6]cyclohepta[1,2-b]pyridine]
Fold Reduction [1, 8]: 1

IC50 [6, 15]: 26.9 µM
Compound: CCCCCN1CCC(=C2c3ccc(Cl)cc3CCc3cccnc32)CC1 [III-2, 8-chloro-11-(1-pentylpiperidin-4-ylidene)-6,11-dihydro-5H-benzo[5,6]cyclohepta[1,2-b]pyridine]
Fold Reduction [1, 8]: 32

IC50 [6, 15]: > 80 µM
Compound: CCCCCCCCCN1CCC(=C2c3ccc(Cl)cc3CCc3cccnc32)CC1 [III-3, 8-chloro-11-(1-nonylpiperidin-4-ylidene)-6,11-dihydro-5H-benzo[5,6]cyclohepta[1,2-b]pyridine]
Fold Reduction [1, 8]: 1

IC50 [6, 15]: > 50 µM
Compound: Clc1ccc2c(c1)CCc1cccnc1C2=C1CCN(Cc2ccccc2)CC1 [III-4]
Fold Reduction [1, 8]: 1

IC50 [6, 15]: 62.2 µM
Compound: CC(C)c1ccc(CN2CCC(=C3c4ccc(Cl)cc4CCc4cccnc43)CC2)cc1 [III-5, 8-chloro-11-(1-(4-isopropylbenzyl)piperidin-4-ylidene)-6,11-dihydro-5H-benzo[5,6]cyclohepta[1,2-b]pyridine]
Fold Reduction [1, 8]: 16
